This note sets out measurements from a melting point compilation (Tetko et al.).

Consider `CCCCCCCc1ccc(C(=O)Oc2ccc(C#N)cc2)cc1`, for which the melting point is 43 to 46 °C.
The compound `COc1cc(F)c(C=O)cc1F` showed a melting point of 99 °C.
As for `O=C1CC[C@@H](COC(c2ccccc2)(c2ccccc2)c2ccccc2)O1`, the figure is 148 to 152 °C; as for `CCCCCCCCCCC(=O)CC`, 31 °C; as for `Oc1ccc(Cl)c(F)c1`, 52 °C.
The value for `NC(=O)c1cncc(Br)c1` was 226 °C; that for `O=C(Oc1ccccc1)c1c2ccccc2nc2ccccc12` was 188 to 192 °C; that for `Nc1nsc(SCc2ccccc2)n1` was 120 to 121 °C.
As for `N[C@H](c1ccccc1)[C@H](N)c1ccccc1`, the figure is 81 to 84 °C.
`CC(C)CC(C)(C)CC(C)(C)CC(C)(C)C` returned a melting point of -98 °C.
The value for `CC1(C)OC(=O)C(=Cc2cccc([N+](=O)[O-])c2)C(=O)O1` was 322 °C.
The value for `O=[N+]([O-])c1ccccc1C=Cc1cc(/C=C/c2ccccc2[N+](=O)[O-])c([N+](=O)[O-])cc1[N+](=O)[O-]` was 291 °C; that for `c1cc2c3c(ccc4c3c1CCC4)CCC2` was 133 °C.
On to `O=C(O)/C=C/c1cccc2c(Br)ccc([N+](=O)[O-])c12`, for which the melting point lay within 141 to 142 °C.
The compound `CSc1sc(Cl)c2c1C(=O)CC(C)(C)C2` gave a melting point of 126 to 129 °C.
Take `CC12CCC(C(=CC(=O)NC(N)=O)C1=O)C2(C)C` (stereo not drawn): the melting point was determined as 206 °C.
In turn, `Cc1ccc(-c2cccc(C)c2)cc1` returned a melting point of 14.5 °C.
For the compound `CCN(Cc1ccncc1)C(=O)C(CO)c1ccccc1` (stereo not drawn), the melting point worked out at 96 °C.
`O=Cc1cccn1-c1ccc(I)cc1` yielded a melting point of 98 to 100 °C.
The value for `CCCCCCCCCCOc1ccc(/N=N/c2ccc(CCCC)cc2)cc1` was 55.5 to 74 °C; that for `CCO[Si](Cl)(Cl)Cl` was -135 °C; that for `O=Cc1ccccc1N1CCN(Cc2ccccc2)CC1` was 58 to 60 °C.
In turn, `C[N+](C)(C)CC(O)CC(=O)[O-]` (stereo not drawn) yielded a melting point of 208 to 212 °C.
The value for `CC(CN(C)C)CN1c2ccccc2Sc2ccccc21` (stereo not drawn) was 68 °C.
`COc1cc(C(=O)O)c([N+](=O)[O-])c(OC)c1OC` gave a melting point of 166 to 169 °C.
As for `Nc1cc(Br)ccn1`, the figure is 146 °C.
The value for `C#Cc1cccnc1` was 40 °C; that for `Cc1nc(CC#N)sc1/N=N/c1ccc([N+](=O)[O-])cc1` was 233 °C.
The value for `Oc1cc(C(F)(F)F)nc2ccc(C(F)(F)F)cc12` was 274 to 277 °C; that for `COC(=O)c1ccc(CBr)cc1` was 56 °C; that for `CCCCCCCCOC(=O)CCCCCCC` was -18.1 °C.
`COP(=S)(OC)Oc1cc(Cl)c(Br)cc1Cl` yielded a melting point of 53.5 °C.
In turn, `O=[N+]([O-])c1cccc(-c2nnc3n2NC(c2ccccc2)S3)c1` (stereo not drawn) had a melting point of 205 °C.
The value for `O=C(O)C1=CC(=C(c2ccc(O)c(C(=O)O)c2)c2ccc(O)c(C(=O)O)c2)C=CC1=O` was 300 °C; that for `COS(=O)(=O)c1ccc([N+](=O)[O-])cc1` was 94 °C; that for `O=[N+]([O-])c1cccc(C2OCCO2)c1` was 54 °C.
Compound `CC12CCC3C(CCC4CC(=NO)CCC43C)C1CCC2O` (stereo not drawn) yielded a melting point of 198 to 199 °C.
As for `CCN(CC)CC#CCOC(=O)C(O)(c1ccccc1)C1CCCCC1` (stereo not drawn), the figure is 130 °C; as for `O=[N+]([O-])N1CCCCC1`, -5.5 °C; as for `Nc1ccc(N=Nc2ccccc2)c(N)n1`, 139 °C.
The value for `O=c1cc(C(F)(F)F)nc2scc(-c3ccc(Br)cc3)n12` was 171 °C; that for `COc1cccc(C2(O)CCCCC2CN(C)C)c1` (stereo not drawn) was 180 °C.
The value for `CCCCOCCCN` was -65 °C.
Compound `NC(=S)Nc1cccc(Cl)c1Cl` showed a melting point of 160 to 162 °C.
The value for `O=Cc1ncccc1F` was 49 to 52 °C.
The value for `N#C/C(=C/c1cccc(O)c1)c1nc2ccccc2c(=O)[nH]1` was 294 °C.
For `CN(C)c1ccc(/C=C/C(=O)CCc2ccccc2)cc1`, the melting point came out at 93 °C.
The compound `COc1cc(C(O)C(=O)O)ccc1O` (stereo not drawn) had a melting point of 131 to 134 °C.
The value for `COc1ccc(C2Nc3nc(C(F)(F)F)nn3C(N)=C2C#N)cc1` (stereo not drawn) was 211 °C.
For the compound `CCCN(CCC)c1c([N+](=O)[O-])cc(C)cc1[N+](=O)[O-]`, the melting point was determined as 80 °C.
The value for `C=CCN1CCCC1CNC(=O)c1cc(S(=O)(=O)NC)c(N)cc1OC` (stereo not drawn) was 169 °C; that for `CC1=C(C#N)Cc2ccccc21` was 63 to 63.6 °C; that for `CC(C)c1ccccc1OS(=O)(=O)c1ccc([N+](=O)[O-])cc1` was 98 to 100 °C.
The value for `CCNC(=S)NN` was 80 to 85 °C; that for `O=C(NC1Cc2ccccc21)c1ccccc1` (stereo not drawn) was 157 °C; that for `Cc1ccc(C=CC(=O)O)cc1` was 198 to 201 °C.
As for `NC(Cc1ccccc1)=NO`, the figure is 66 to 67 °C.
With `CCOc1nc(NC)nc(NC(=O)NS(=O)(=O)c2ccccc2C(=O)OC)n1`, the melting point worked out at 194 °C.
Turning to `C#Cc1ccc(-c2ccccc2)cc1`, the melting point is 80 to 87 °C.
Turning to `Nc1ccc2c(C(F)(F)F)cc(=O)oc2c1`, the melting point amounted to 223 °C.
`C/C(=N\c1ccccc1C)c1c(O)c2ccccc2n(-c2ccccc2)c1=O` had a melting point of 140 °C.
`CC(=O)Nc1cc([N+](=O)[O-])c(C=Cc2ccccc2)cc1C=Cc1ccccc1` came in with a melting point of 227 °C.
As for `NC(=O)Nc1ccccn1`, the figure is 173 to 175 °C.
In the case of `c1ccc(C2Cc3ccccc3N2)cc1` (stereo not drawn), the melting point worked out at 49 °C.
As for `O=C1NN=C(C(F)(F)F)C1=NNc1cccc([N+](=O)[O-])c1`, the figure is 254 °C; as for `CC(=O)/C=C/c1oc2ccc(Cl)cc2c1-c1ccc(C)o1`, 118 to 119 °C; as for `NC(=NO)c1cc(F)c(F)cc1F`, 91 to 92 °C.
As to `CCCCCCC(O)C1C2=C(CC(C(O)C3CC=CC(=O)O3)CC3=C(C(=O)OC3=O)C1O)C(O)OC2=O` (stereo not drawn), the melting point came out at 214 °C.
`C=CC(O)COS(=O)(=O)c1ccc(C)cc1` (stereo not drawn) registered a melting point of 57 to 63 °C.
The value for `CCCCCCCOC(=O)CCCCCC` was -33 °C; that for `Brc1cccs1` was -10 °C; that for `Clc1c(Br)c(Br)c2c(c1Br)Oc1c(Br)c(Br)c(Cl)c(Br)c1O2` was 385 °C.
As for `O=C(NC(CC=Cc1ccccc1)C(=O)O)OCC1c2ccccc2-c2ccccc21` (stereo not drawn), the figure is 142 °C; as for `Oc1ccccc1CCc1ccccc1`, 85 °C.
Turning to `O=Cc1ccc(O)c(O)c1O`, the melting point came out at 163 °C.
On to `O=C(O)c1cccc(-c2ncccn2)c1`, for which the melting point was 180 to 182 °C.
The value for `CC1(C)OC2C(CO)OC(n3cnc4c(N)ncnc43)C2O1` (stereo not drawn) was 221 to 222 °C; that for `Cc1ccc(S(=O)(=O)c2ncsc2SCC(=O)c2ccc(Cl)cc2)cc1` was 212 to 213 °C; that for `O=[N+]([O-])c1ccc2c(O)c(-c3cccc(-c4[nH]c5cc([N+](=O)[O-])ccc5c4O)c3)[nH]c2c1` was 266 °C.
The compound `N#Cc1ccc(C(c2ccc(C#N)cc2)n2cncn2)cc1` yielded a melting point of 181 °C.
As for `OCc1cccnc1Cl`, the figure is 54 to 55 °C; as for `CC(=O)OCC(COC(C)=O)(COC(C)=O)COC(C)=O`, 83.5 °C; as for `OCc1ccc2ncccc2c1`, 79 to 80 °C.
Turning to `N#Cc1cccnc1N1CCNCC1`, the melting point is 76 to 78 °C.
Compound `Cc1cc(C(=O)O)c2ccccc2n1` displayed a melting point of 240 to 242 °C.
The value for `O=[N+]([O-])c1ccc2c(c1)-c1cccc([N+](=O)[O-])c1C2` was 284 to 288 °C; that for `O=C1CC(=O)NC(=O)N1` was 248 °C.
The value for `Clc1cccc2cccnc12` was -20 °C.
The value for `OC1(c2ccc(Br)cc2)CCNCC1` was 163 to 168 °C.
Regarding `Cc1c(S(=O)(=O)Cl)sc2ccc(Cl)cc12`, the melting point worked out at 153 °C.
The value for `O=C1NC(=O)c2cccc3cccc1c23` was 301 to 302 °C; that for `CC1=Nc2ccccc2N=C(C)C1` was 193 °C; that for `O=C(O)c1cc2cccnc2nc1C(F)(F)F` was 309 to 310 °C.
`Cc1ccc(C(O)c2ccc(C)cc2)cc1` showed a melting point of 71 °C.
As for `c1cc2c3c(cccc3c1)C1=NCCN=C12`, the melting point came to 95 °C.
The value for `CNC(=O)COc1ccccc1OCC(O)CNC(C)(C)C` (stereo not drawn) was 96.5 °C; that for `CC1(C)C2CCC1(C)C(NC(=S)Nc1ccccc1)C2NC(=S)Nc1ccccc1` (stereo not drawn) was 178 °C; that for `CN(C)c1nc(N(C)C)nc(N(C)C)n1` was 173 °C.
As for `O=c1[nH]c2ccccc2c(-c2ccccc2)c1O`, the figure is 268 °C.
Take `Cc1cc(C(F)(F)F)n2nc(N)c(/N=N/c3ccccc3Cl)c2n1`: the melting point amounted to 238 °C.
The compound `O=C1OC(c2ccccc2)=NC1=Cc1ccc(-c2ccccc2Br)o1` gave a melting point of 159 to 160 °C.
In turn, `CCOC(=O)c1c(N)sc2c1CCC2` yielded a melting point of 90 to 94 °C.
For the compound `CC(O)C1(O)CC2C3CCC4(C)CC(O)CCC4(C)C3CCC2(C)C1` (stereo not drawn), the melting point fell in the range of 220 to 221 °C.
As for `BrC(=Cc1ccccc1)c1ccc(Br)c2c(Br)cccc12`, the figure is 171 °C.
The value for `COc1cc([N+](=O)[O-])ccc1N1CCCC1` was 60 °C; that for `NC(=O)N=NC(N)=O` was 195 to 202 °C; that for `CN1CCN(C)c2cc(Br)ccc21` was 55 to 56 °C.
`C=C(C)CCCCCCCCC` returned a melting point of -40 °C.
